Measurements as given in PMC7206119, “RIP1 inhibition blocks inflammatory diseases but not tumor growth or metastases” (Cell Death and Differentiation, 2019).

Legend:
Assay in all cases: biochemical
Design in all cases: DiscoverX kinase panel, active-site competition binding (KINOMEscan type), percent of control at one concentration
Settings in all cases: competition binding, percent of control
[1] = target: CAMKK1 (Homo sapiens, UniProt Q8N5S9)
[2] = target: PDGFRB (Homo sapiens, UniProt P09619)
[3] = target: LRRK2 (Homo sapiens, UniProt Q5S007)
[4] = target: AKT2 (Homo sapiens, UniProt P31751)
Chain of AKT2 (P31751 whole entry): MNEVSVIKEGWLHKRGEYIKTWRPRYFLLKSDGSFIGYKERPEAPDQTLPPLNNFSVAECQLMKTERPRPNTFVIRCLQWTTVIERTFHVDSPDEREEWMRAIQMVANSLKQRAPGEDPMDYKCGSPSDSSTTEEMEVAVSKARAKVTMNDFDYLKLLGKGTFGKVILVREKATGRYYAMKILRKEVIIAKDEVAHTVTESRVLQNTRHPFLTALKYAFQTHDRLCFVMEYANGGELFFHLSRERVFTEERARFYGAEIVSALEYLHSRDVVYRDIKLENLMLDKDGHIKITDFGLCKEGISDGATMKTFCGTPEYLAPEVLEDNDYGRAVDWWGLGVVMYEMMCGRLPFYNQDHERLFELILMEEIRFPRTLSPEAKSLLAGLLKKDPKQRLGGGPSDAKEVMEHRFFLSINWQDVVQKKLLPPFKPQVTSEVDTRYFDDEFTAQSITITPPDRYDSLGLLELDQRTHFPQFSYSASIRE

[5] = target: MET (Homo sapiens, UniProt P08581)
[6] = target: CDKL3 (Homo sapiens, UniProt Q8IVW4)
[7] = target: EGFR (Homo sapiens, UniProt P00533)
[8] = target: T1, YANK2 (Homo sapiens, UniProt Q9NY57)
T1 construct: gene STK32B

[9] = target: CDK4 (Homo sapiens, UniProt P11802)
[10] = target: T2, RSK3(Kin.Dom.1-N-terminal) (Homo sapiens, UniProt Q15349)
T2 construct: gene RPS6KA2; Kin.Dom.1-N-terminal
T2 sequence (Q15349 whole entry): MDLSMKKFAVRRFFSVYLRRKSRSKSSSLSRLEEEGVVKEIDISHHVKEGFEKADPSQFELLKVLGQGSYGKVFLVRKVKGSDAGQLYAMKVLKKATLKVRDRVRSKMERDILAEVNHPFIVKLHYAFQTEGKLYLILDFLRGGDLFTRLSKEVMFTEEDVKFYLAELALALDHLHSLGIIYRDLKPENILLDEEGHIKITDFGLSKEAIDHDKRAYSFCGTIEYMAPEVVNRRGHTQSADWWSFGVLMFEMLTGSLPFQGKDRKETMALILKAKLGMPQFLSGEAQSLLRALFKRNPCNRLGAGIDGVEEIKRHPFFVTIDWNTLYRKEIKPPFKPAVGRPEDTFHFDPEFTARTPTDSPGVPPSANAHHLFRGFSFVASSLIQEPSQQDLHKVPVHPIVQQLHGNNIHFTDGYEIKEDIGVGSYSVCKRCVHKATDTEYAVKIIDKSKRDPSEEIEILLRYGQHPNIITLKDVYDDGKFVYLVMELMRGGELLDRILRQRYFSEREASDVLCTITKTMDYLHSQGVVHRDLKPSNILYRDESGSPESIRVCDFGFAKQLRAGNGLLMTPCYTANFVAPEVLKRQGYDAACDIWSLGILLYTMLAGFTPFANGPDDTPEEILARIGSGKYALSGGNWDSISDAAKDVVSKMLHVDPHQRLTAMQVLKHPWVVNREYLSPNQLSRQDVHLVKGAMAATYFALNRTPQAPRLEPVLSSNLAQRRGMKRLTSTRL

[11] = target: T3, JNK1 (Homo sapiens, UniProt P45983)
T3 construct: gene MAPK8
T3 sequence (P45983 whole entry): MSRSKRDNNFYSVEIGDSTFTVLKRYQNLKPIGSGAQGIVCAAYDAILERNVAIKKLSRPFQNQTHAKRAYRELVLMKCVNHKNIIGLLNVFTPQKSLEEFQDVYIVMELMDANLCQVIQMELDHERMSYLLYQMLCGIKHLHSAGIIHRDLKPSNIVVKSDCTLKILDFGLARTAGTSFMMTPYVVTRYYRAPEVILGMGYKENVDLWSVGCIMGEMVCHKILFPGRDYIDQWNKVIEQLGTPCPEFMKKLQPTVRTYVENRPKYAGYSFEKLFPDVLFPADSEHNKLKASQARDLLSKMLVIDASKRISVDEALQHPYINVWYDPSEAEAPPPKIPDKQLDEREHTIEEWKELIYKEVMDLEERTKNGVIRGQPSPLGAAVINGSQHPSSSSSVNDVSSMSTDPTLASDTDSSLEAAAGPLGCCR

[12] = target: MYO3A (Homo sapiens, UniProt Q8NEV4)
[13] = target: EPHB1 (Homo sapiens, UniProt P54762)
[14] = target: T4, MST2 (Homo sapiens, UniProt Q13188)
T4 construct: gene STK3

[15] = target: ZAP70 (Homo sapiens, UniProt P43403)
[16] = target: ITK (Homo sapiens, UniProt Q08881)
[17] = target: T5, LZK (Homo sapiens, UniProt O43283)
T5 construct: gene MAP3K13
T5 sequence (O43283 whole entry): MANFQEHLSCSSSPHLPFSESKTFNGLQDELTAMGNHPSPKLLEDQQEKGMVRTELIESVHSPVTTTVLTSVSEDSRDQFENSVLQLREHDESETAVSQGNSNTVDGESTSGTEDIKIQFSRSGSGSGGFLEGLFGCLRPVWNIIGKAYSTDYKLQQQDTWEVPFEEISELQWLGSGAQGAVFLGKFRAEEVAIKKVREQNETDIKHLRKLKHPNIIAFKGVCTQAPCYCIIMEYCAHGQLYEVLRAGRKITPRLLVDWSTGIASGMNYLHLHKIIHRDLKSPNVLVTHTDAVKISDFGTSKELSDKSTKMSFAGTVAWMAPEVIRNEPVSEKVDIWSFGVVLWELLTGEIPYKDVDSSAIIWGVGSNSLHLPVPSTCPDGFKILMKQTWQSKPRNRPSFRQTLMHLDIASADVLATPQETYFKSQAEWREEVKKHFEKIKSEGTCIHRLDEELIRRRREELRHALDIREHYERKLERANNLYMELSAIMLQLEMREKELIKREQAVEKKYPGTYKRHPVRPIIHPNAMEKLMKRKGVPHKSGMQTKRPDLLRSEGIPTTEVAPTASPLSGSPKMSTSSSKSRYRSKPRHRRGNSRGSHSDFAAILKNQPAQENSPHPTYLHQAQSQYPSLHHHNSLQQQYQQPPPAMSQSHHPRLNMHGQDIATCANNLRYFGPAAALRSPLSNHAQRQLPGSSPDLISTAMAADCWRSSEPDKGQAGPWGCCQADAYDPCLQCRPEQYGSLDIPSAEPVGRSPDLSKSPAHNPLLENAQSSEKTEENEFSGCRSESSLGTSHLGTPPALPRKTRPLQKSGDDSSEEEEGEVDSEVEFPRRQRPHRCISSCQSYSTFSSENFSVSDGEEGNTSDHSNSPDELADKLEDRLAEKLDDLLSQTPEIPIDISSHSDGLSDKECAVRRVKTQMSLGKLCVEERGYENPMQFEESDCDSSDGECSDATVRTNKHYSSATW

[18] = target: T6, YES (Homo sapiens, UniProt P07947)
T6 construct: gene YES1
T6 sequence (P07947 whole entry): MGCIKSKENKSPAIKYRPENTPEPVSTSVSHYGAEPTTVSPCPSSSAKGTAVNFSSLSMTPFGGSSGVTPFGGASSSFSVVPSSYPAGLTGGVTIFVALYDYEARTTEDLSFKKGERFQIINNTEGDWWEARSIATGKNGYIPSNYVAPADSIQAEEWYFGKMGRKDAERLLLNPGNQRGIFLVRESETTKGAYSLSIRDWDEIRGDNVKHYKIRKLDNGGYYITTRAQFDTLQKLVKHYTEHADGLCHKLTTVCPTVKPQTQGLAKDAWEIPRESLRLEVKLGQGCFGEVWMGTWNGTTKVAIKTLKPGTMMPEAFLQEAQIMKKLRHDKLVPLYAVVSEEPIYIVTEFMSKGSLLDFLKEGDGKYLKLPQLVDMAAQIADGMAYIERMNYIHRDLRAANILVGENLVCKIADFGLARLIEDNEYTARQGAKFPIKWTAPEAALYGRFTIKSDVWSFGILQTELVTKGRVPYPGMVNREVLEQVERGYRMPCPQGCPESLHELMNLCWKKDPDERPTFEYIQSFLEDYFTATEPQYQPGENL

[19] = target: DAPK3 (Homo sapiens, UniProt O43293)
Chain of DAPK3 (O43293 whole entry): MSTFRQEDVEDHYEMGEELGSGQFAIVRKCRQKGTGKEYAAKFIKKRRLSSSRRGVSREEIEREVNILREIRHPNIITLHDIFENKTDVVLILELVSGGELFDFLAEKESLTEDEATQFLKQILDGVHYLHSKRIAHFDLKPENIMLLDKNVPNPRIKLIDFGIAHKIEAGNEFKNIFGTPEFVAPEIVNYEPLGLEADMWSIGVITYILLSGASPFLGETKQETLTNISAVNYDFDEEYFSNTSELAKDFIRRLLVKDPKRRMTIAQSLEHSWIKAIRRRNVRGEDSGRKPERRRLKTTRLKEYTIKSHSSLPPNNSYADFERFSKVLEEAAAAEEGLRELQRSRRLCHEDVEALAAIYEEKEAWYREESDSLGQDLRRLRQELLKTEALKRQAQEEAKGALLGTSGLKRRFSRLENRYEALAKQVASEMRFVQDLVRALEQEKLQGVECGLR

[20] = target: T7, RSK4(Kin.Dom.1-N-terminal) (Homo sapiens, UniProt Q9UK32)
T7 construct: gene RPS6KA6; Kin.Dom.1-N-terminal
T7 sequence (Q9UK32 whole entry): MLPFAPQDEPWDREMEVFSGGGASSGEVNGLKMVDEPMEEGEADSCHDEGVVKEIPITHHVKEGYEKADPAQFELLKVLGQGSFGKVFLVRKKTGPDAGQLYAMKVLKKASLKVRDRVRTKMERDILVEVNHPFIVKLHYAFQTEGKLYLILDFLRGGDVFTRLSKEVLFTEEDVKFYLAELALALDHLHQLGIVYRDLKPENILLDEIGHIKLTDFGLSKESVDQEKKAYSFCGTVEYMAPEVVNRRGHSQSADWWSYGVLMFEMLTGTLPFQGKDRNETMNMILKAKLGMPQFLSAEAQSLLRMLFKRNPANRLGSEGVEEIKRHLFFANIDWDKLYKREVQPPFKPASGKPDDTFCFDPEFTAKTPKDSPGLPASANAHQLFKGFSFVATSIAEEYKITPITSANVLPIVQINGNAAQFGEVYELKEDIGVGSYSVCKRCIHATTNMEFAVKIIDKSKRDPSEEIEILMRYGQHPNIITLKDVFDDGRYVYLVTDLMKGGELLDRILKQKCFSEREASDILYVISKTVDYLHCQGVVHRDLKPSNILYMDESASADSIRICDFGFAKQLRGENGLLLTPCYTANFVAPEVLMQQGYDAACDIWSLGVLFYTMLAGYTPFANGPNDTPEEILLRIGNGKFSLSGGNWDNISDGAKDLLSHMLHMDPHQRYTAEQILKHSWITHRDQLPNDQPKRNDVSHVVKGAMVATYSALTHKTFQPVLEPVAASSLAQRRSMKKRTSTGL

[21] = target: MAP4K2 (Homo sapiens, UniProt Q12851)

Chain of CAMKK1 (Q8N5S9 whole entry): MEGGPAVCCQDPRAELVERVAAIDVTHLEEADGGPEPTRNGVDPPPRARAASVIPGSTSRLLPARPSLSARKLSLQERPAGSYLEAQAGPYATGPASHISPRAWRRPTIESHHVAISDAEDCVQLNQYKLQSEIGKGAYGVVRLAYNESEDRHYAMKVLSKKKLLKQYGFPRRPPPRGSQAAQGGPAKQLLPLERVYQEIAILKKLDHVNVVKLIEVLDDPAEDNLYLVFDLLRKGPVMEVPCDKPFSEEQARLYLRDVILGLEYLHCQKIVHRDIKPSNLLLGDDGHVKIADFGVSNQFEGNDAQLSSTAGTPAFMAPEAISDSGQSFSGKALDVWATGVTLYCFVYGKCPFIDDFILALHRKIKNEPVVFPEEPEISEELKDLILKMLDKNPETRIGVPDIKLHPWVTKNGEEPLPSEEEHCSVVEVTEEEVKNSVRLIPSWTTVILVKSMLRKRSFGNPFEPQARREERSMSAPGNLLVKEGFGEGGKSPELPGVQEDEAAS

SMILES: COc1cc2c(cn1)N(C)C(=O)[C@@H](NC(=O)c1nc3n(n1)[C@H](c1ccccc1)CC3)CC2 [GNE684, (S)-N-((S)-7-methoxy-1-methyl-2-oxo-2,3,4,5-tetrahydro-1H-pyrido[3,4-b]azepin-3-yl)-5-phenyl-6,7-dihydro-5H-pyrrolo[1,2-b][1,2,4]triazole-2-carboxamide]
- remaining binding at 10 µM [1]: 99%
- remaining binding at 10 µM [2]: 94%
- remaining binding at 10 µM [3]: 91%
- remaining binding at 10 µM [4]: 92%
- remaining binding at 10 µM [5]: 73%
- remaining binding at 10 µM [6]: 69%
- remaining binding at 10 µM [7]: 100%
- remaining binding at 10 µM [8]: 84%
- remaining binding at 10 µM [9]: 100%
- remaining binding at 10 µM [10]: 92%
- remaining binding at 10 µM [11]: 97%
- remaining binding at 10 µM [12]: 95%
- remaining binding at 10 µM [13]: 100%
- remaining binding at 10 µM [14]: 100%
- remaining binding at 10 µM [15]: 100%
- remaining binding at 10 µM [16]: 100%
- remaining binding at 10 µM [17]: 98%
- remaining binding at 10 µM [18]: 95%
- remaining binding at 10 µM [19]: 76%
- remaining binding at 10 µM [20]: 100%
- remaining binding at 10 µM [21]: 100%
